Columns and labels:
RAW264.7 [1] = assay: Anti-inflammatory activity in mouse RAW264.7 cells assessed as inhibition of LPS-induced NO production preincubated for 1 hr followed by LPS-stimulation and measured after 18 hrs by Griess reagent-based assay; format: functional, cell-based
RAW264.7 [2] = assay: Cytotoxicity against mouse RAW264.7 cells at anti-inflammatory IC50 after 19 hrs by MTT assay; format: cell-based; details: raw264.7, 19 h
RAW264.7 [3] = assay: Anti-inflammatory activity in mouse LPS-stimulated RAW264.7 cells assessed as decrease in iNOS protein levels preincubated for 1 hr followed by LPS-stimulation and measured after 16 hrs by Western blot analysis; format: functional, cell-based
RAW264.7 [4] = assay: Anti-inflammatory activity in mouse LPS-stimulated RAW264.7 cells assessed as decrease in IL6 levels preincubated for 1 hr followed by LPS-stimulation and measured after 12 hrs by ELISA; format: functional, cell-based
RAW264.7 [5] = assay: Anti-inflammatory activity in mouse LPS-stimulated RAW264.7 cells assessed as decrease in PGE2 levels at preincubated for 1 hr followed by LPS-stimulation and measured after 12 hrs by ELISA; format: functional, cell-based
RAW264.7 [6] = assay: Anti-inflammatory activity in mouse LPS-stimulated RAW264.7 cells assessed as decrease in TNFalpha levels preincubated for 1 hr followed by LPS-stimulation and measured after 12 hrs by ELISA; format: functional, cell-based
RAW264.7 [7] = assay: Anti-inflammatory activity in mouse LPS-stimulated RAW264.7 cells assessed as decrease in IL1beta levels preincubated for 1 hr followed by LPS-stimulation and measured after 12 hrs by ELISA; format: functional, cell-based
RAW264.7 [8] = assay: Anti-inflammatory activity in mouse LPS-stimulated RAW264.7 cells assessed as decrease in COX2 protein levels preincubated for 1 hr followed by LPS-stimulation and measured after 16 hrs by Western blot analysis; format: functional, cell-based

| SMILES | IC50 (RAW264.7 [1]) | Activity (RAW264.7 [2]) | further results |
| --- | --- | --- | --- |
| C[C@@H]1O[C@@H](O[C@H]2[C@H](O)[C@@H](O)[C@H](OC[C@H]3O[C@@H](OC(=O)[C@]45CCC(C)(C)C[C@H]4C4=CC[C@@H]6[C@@]7(C)CC[C@H](O)C(C)(C)[C@@H]7CC[C@@]6(C)[C@]4(C)CC5)[C@H](O)[C@@H](O)[C@@H]3O)O[C@@H]2CO)[C@H](O)[C@H](O)[C@H]1O [CIRENSENOSIDE O] | > 50 µM | Non-Toxic | – |
| CC1(C)CC[C@]2(C(=O)O[C@@H]3O[C@H](CO)[C@@H](O)[C@H](O)[C@H]3O)CC[C@]3(C)C(=CC[C@@H]4[C@@]5(C)CC[C@H](O)C(C)(C)[C@@H]5CC[C@]43C)[C@@H]2C1 | > 50 µM | Non-Toxic | – |
| C[C@@H]1O[C@@H](O[C@H]2[C@H](O)[C@@H](O)[C@H](OC[C@H]3O[C@@H](OC(=O)[C@]45CCC(C)(C)C[C@H]4C4=CC[C@@H]6[C@@]7(C)CC[C@H](O[C@@H]8OC[C@H](O)[C@H](O)[C@H]8O)[C@@](C)(CO)[C@@H]7CC[C@@]6(C)[C@]4(C)CC5)[C@H](O)[C@@H](O)[C@@H]3O)O[C@@H]2CO)[C@H](O)[C@H](O)[C@H]1O [CAULOSIDE D] | > 50 µM | Non-Toxic | – |
| CC1(C)CC[C@]2(C(=O)O[C@@H]3O[C@H](CO[C@@H]4O[C@H](CO)[C@@H](O)[C@H](O)[C@H]4O)[C@@H](O)[C@H](O)[C@H]3O)CC[C@]3(C)C(=CC[C@@H]4[C@@]5(C)CC[C@H](O[C@@H]6OC[C@H](O)[C@H](O)[C@H]6O[C@@H]6O[C@H](CO)[C@@H](O)[C@H](O)[C@H]6O)[C@@](C)(CO)[C@@H]5CC[C@]43C)[C@@H]2C1 | > 50 µM | Non-Toxic | – |
| CC1(C)CC[C@]2(C(=O)O)CC[C@]3(C)C(=CC[C@@H]4[C@@]5(C)CC[C@H](O)[C@@](C)(CO[C@@H]6O[C@H](CO[C@@H]7O[C@H](CO)[C@@H](O)[C@H](O)[C@H]7O)[C@@H](O)[C@H](O)[C@H]6O)[C@@H]5CC[C@]43C)[C@@H]2C1 | > 50 µM | Non-Toxic | – |
| C=C1CC[C@]2(C(=O)O[C@@H]3O[C@H](CO[C@@H]4O[C@H](CO)[C@@H](O)[C@H](O)[C@H]4O)[C@@H](O)[C@H](O)[C@H]3O)CC[C@]3(C)C(=CC[C@@H]4[C@@]5(C)CC[C@H](O)C(C)(C)[C@@H]5CC[C@]43C)[C@@H]2C1 | > 50 µM | Non-Toxic | – |
| CC1(C)CC[C@]2(C(=O)O)CC[C@]3(C)C(=CC[C@@H]4[C@@]5(C)CC[C@H](O[C@@H]6OC[C@H](O)[C@H](O)[C@H]6O[C@@H]6O[C@H](CO)[C@@H](O)[C@H](O)[C@H]6O)C(C)(C)[C@@H]5CC[C@]43C)[C@@H]2C1 | 1.82 µM | Non-Toxic | inhibition (RAW264.7 [3]): Dose-dependent effect; inhibition (RAW264.7 [4]): Dose-dependent effect; inhibition (RAW264.7 [5]): Dose-dependent effect; inhibition (RAW264.7 [6]): Dose-dependent effect; inhibition (RAW264.7 [7]): Dose-dependent effect; inhibition (RAW264.7 [8]): Dose-dependent effect |
| CC1(C)CC[C@]2(C(=O)O[C@@H]3O[C@H](CO[C@@H]4O[C@H](CO)[C@@H](O)[C@H](O)[C@H]4O)[C@@H](O)[C@H](O)[C@H]3O)CC[C@]3(C)C(=CC[C@@H]4[C@@]5(C)CC[C@H](O)C(C)(C)[C@@H]5CC[C@]43C)[C@@H]2C1 | > 50 µM | Non-Toxic | – |
| CC1(C)CC[C@]2(C(=O)O[C@@H]3O[C@H](CO[C@@H]4O[C@H](CO)[C@@H](O)[C@H](O)[C@H]4O)[C@@H](O)[C@H](O)[C@H]3O)CC[C@]3(C)C(=CC[C@@H]4[C@@]5(C)CC[C@H](O[C@@H]6OC[C@H](O)[C@H](O[C@@H]7O[C@H](CO)[C@@H](O)[C@H](O)[C@H]7O)[C@H]6O)C(C)(C)[C@@H]5CC[C@]43C)[C@@H]2C1 | > 50 µM | Non-Toxic | – |
| C[C@@H]1O[C@@H](O[C@H]2[C@H](O)[C@@H](O)[C@H](OC[C@H]3O[C@@H](OC(=O)[C@]45CCC(C)(C)C[C@H]4C4=CC[C@@H]6[C@@]7(C)CC[C@H](O)[C@@](C)(CO)[C@@H]7CC[C@@]6(C)[C@]4(C)CC5)[C@H](O)[C@@H](O)[C@@H]3O)O[C@@H]2CO)[C@H](O)[C@H](O)[C@H]1O [KIZUTA CIRENSENOSIDE O SAPONIN K3] | > 50 µM | Non-Toxic | – |
| CC1(C)CC[C@]2(C(=O)O[C@@H]3O[C@H](CO[C@@H]4O[C@H](CO)[C@@H](O)[C@H](O)[C@H]4O)[C@@H](O)[C@H](O)[C@H]3O)CC[C@]3(C)C(=CC[C@@H]4[C@@]5(C)CC[C@H](O[C@@H]6OC[C@H](O)[C@H](O)[C@H]6O)[C@@](C)(CO)[C@@H]5CC[C@]43C)[C@@H]2C1 | > 50 µM | Non-Toxic | – |
| CC1(C)CC[C@]2(C(=O)O[C@@H]3O[C@H](CO[C@@H]4O[C@H](CO)[C@@H](O)[C@H](O)[C@H]4O)[C@@H](O)[C@H](O)[C@H]3O)CC[C@]3(C)C(=CC[C@@H]4[C@@]5(C)CC[C@H](O[C@@H]6OC[C@H](O)[C@H](O)[C@H]6O[C@@H]6O[C@H](CO)[C@@H](O)[C@H](O)[C@H]6O)C(C)(C)[C@@H]5CC[C@]43C)[C@@H]2C1 | > 50 µM | Non-Toxic | – |

Now from value to compound, other results behind:

| IC50 (RAW264.7 [1]) | SMILES | Activity (RAW264.7 [2]) | further results |
| --- | --- | --- | --- |
| > 50 µM | C=C1CC[C@]2(C(=O)O[C@@H]3O[C@H](CO[C@@H]4O[C@H](CO)[C@@H](O)[C@H](O)[C@H]4O)[C@@H](O)[C@H](O)[C@H]3O)CC[C@]3(C)C(=CC[C@@H]4[C@@]5(C)CC[C@H](O)[C@@](C)(CO)[C@@H]5CC[C@]43C)[C@@H]2C1 | Non-Toxic | – |
| > 50 µM | CC1(C)CC[C@]2(C(=O)O[C@@H]3O[C@H](CO[C@@H]4O[C@H](CO)[C@@H](O)[C@H](O)[C@H]4O)[C@@H](O)[C@H](O)[C@H]3O)CC[C@]3(C)C(=CC[C@@H]4[C@@]5(C)CC[C@H](O)[C@@](C)(CO)[C@@H]5CC[C@]43C)[C@@H]2C1 [DIPSACUSSAPONIN A] | Non-Toxic | – |
| > 50 µM | CC1(C)CC[C@]2(C(=O)O[C@@H]3O[C@H](CO[C@@H]4O[C@H](CO)[C@@H](O)[C@H](O)[C@H]4O)[C@@H](O)[C@H](O)[C@H]3O)CC[C@]3(C)C(=CC[C@@H]4[C@@]5(C)CC[C@H](O[C@@H]6OC[C@H](O)[C@H](O)[C@H]6O)C(C)(C)[C@@H]5CC[C@]43C)[C@@H]2C1 | Non-Toxic | – |
| > 50 µM | C=C1CC[C@]2(C(=O)O[C@@H]3O[C@H](CO[C@@H]4O[C@H](CO)[C@@H](O[C@@H]5O[C@@H](C)[C@H](O)[C@@H](O)[C@H]5O)[C@H](O)[C@H]4O)[C@@H](O)[C@H](O)[C@H]3O)CC[C@]3(C)C(=CC[C@@H]4[C@@]5(C)CC[C@H](O[C@@H]6OC[C@H](O)[C@H](O)[C@H]6O)[C@@](C)(CO)[C@@H]5CC[C@]43C)[C@@H]2C1 | Non-Toxic | – |
| 16.6 µM | C=C1CC[C@]2(C(=O)O)CC[C@]3(C)C(=CC[C@@H]4[C@@]5(C)CC[C@H](O[C@@H]6OC[C@H](O)[C@H](O)[C@H]6O[C@@H]6O[C@H](CO)[C@@H](O)[C@H](O)[C@H]6O)C(C)(C)[C@@H]5CC[C@]43C)[C@@H]2C1 | Non-Toxic | – |
| > 50 µM | C[C@@H]1O[C@@H](O[C@H]2[C@H](O[C@H]3CC[C@]4(C)[C@H]5CC=C6[C@@H]7CC(C)(C)CC[C@]7(C(=O)O)CC[C@@]6(C)[C@]5(C)CC[C@H]4C3(C)C)OC[C@H](O)[C@@H]2O[C@@H]2O[C@H](CO)[C@@H](O)[C@H](O)[C@H]2O)[C@H](O)[C@H](O)[C@H]1O | Non-Toxic | – |
| > 50 µM | C[C@@H]1O[C@@H](O[C@H]2[C@H](O[C@H]3CC[C@@]4(C)[C@@H](CC[C@]5(C)[C@@H]4CC=C4[C@@H]6CC(C)(C)CC[C@]6(C(=O)O[C@@H]6O[C@H](CO[C@@H]7O[C@H](CO)[C@@H](O[C@@H]8O[C@@H](C)[C@H](O)[C@@H](O)[C@H]8O)[C@H](O)[C@H]7O)[C@@H](O)[C@H](O)[C@H]6O)CC[C@]45C)[C@]3(C)CO)OC[C@H](O)[C@@H]2O)[C@H](O)[C@H](O)[C@H]1O [KALOPANAXSAPONIN B] | Non-Toxic | – |
| 0.13 µM | C[C@@H]1C[C@H]2[C@@H]3CCC4=CC(=O)C=C[C@]4(C)[C@@]3(F)[C@@H](O)C[C@]2(C)[C@@]1(O)C(=O)CO [DEXAMETHASONE] | Non-Toxic | – |
| > 50 µM | CC1(C)CC[C@]2(C(=O)O)CC[C@]3(C)C(=CC[C@@H]4[C@@]5(C)CC[C@H](O)[C@@](C)(CO[C@@H]6O[C@H](CO)[C@@H](O)[C@H](O)[C@H]6O)[C@@H]5CC[C@]43C)[C@@H]2C1 | Non-Toxic | – |
| > 50 µM | C=C1CC[C@]2(C(=O)O[C@@H]3O[C@H](CO[C@@H]4O[C@H](CO)[C@@H](O[C@@H]5O[C@@H](C)[C@H](O)[C@@H](O)[C@H]5O)[C@H](O)[C@H]4O)[C@@H](O)[C@H](O)[C@H]3O)CC[C@]3(C)C(=CC[C@@H]4[C@@]5(C)CC[C@H](O)C(C)(C)[C@@H]5CC[C@]43C)[C@@H]2C1 | Non-Toxic | – |
| > 50 µM | C=C1CC[C@]2(C(=O)O[C@@H]3O[C@H](CO[C@@H]4O[C@H](CO)[C@@H](O)[C@H](O)[C@H]4O)[C@@H](O)[C@H](O)[C@H]3O)CC[C@]3(C)C(=CC[C@@H]4[C@@]5(C)CC[C@H](O[C@@H]6OC[C@H](O)[C@H](O)[C@H]6O[C@@H]6O[C@H](CO)[C@@H](O)[C@H](O)[C@H]6O)C(C)(C)[C@@H]5CC[C@]43C)[C@@H]2C1 | Non-Toxic | – |
